Source: article PMC6009904, “Carbonic anhydrase inhibitory properties of some uracil derivatives” (Journal of Enzyme Inhibition and Medicinal Chemistry, 2017)

The compounds below were run against T1, hCA I (Homo sapiens, UniProt P00915) (assay: hCA I inhibition, esterase assay with 4-nitrophenylacetate as substrate). Conditions: 4-nitrophenylacetate substrate, mean from at least three determinations, enzyme purified from human erythrocytes.
T1 construct: we have purified CA I and II (hCA I and hCA II) from human erythrocytes; from tissue; host or cells: human erythrocytes (fresh human blood)
T1 sequence (P00915 whole entry): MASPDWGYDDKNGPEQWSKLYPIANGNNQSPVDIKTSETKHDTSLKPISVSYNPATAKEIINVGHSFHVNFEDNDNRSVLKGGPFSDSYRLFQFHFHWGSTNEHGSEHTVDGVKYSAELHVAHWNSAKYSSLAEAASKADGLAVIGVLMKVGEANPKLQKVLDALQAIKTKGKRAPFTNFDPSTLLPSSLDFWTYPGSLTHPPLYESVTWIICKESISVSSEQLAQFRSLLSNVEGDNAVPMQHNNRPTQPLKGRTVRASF
Format: biochemical
Experimental: (§1) Erythrocytes were purified from fresh human blood obtained from the Blood Centre of the Research Hospital at Atatürk University. The blood samples were centrifuged at 1500 rpm for 15 min and the plasma and buffy coat were removed. The red cells were isolated and washed twice with 0.9% NaCl, and hemolysed with 1.5 volumes of ice-cold water. The ghost and intact cells were removed by centrifugation at 20 000 rpm for 30 min at 4 °C. The pH of the hemolysate was adjusted to 8.7 with solid Tris[18]. Firstly, benzoyl chloride and stirred for four hours at room temperature in CH2Cl2 cellulose. After the spacer arm cellulose added as a benzyl group and finally diazotized sulfanilamide clamped to the para position of benzyl group as ligand. The hemolysate was applied to the prepared cellulose-benzyl-sulfanylamide affinity column equilibrated with 25 mM Tris-HCl/0.1 M Na2SO4 (pH 8.7). The affinity gel was washed with 25 mM Tris-HCl/22 mM Na2SO4 (pH 8.7). The human carbonic anhydrase (hCA I and hCA II) isozymes were eluted with 1 M NaCl/25 mM Na2HPO4 (pH 6.3) and 0.1 M CH3COONa/0.5 M NaClO4 (pH 5.6), respectively. All procedures were performed at 4 °C[16].
(§2) Enzyme activity was determined spectrophotometrically by following the change in absorbance at 348 nm of 4-nitrophenylacetate to 4-nitrophenylate over a period of 3 min at 25 °C[19–21]. The enzymatic reaction contained 1.4 mL 0.05 M Tris-SO4 buffer (pH 7.4), 1 mL 3 mM 4-nitrophenylacetate, 0.5 mL H2O and 0.1 mL enzyme solution, in a total volume of 3.0 mL[22]. Inhibitory effects of compounds 4–12 were compared with phenolic compounds 13–15. Different inhibitor concentrations were used and all compounds were tested in triplicate at each concentration used. Control cuvette activity was acknowledged as 100% in the absence of inhibitor. An Activity% – [Inhibitor] graph was drawn for each inhibitor[22–24]. The curve-fitting algorithm allowed to obtain the IC50 values, working at the lowest concentration of substrate of 0.15 mM, from which KI values were calculated[25]^,[26]. The catalytic activity of these enzymes was calculated from Lineweaver–Burk plots, as reported earlier, and represent the mean from at least three different determinations. The CA I and II isoenzymes used here were purified from human blood as described earlier.
Cn1c(N)c(N)c(=O)n(C)c1=O [5,6-Diamino 1,3-Dimethyluracil (12), 5,6-Diamino 1,3-Dimethyluracil] showed a Ki of 104 nM.
In the case of Cn1c(N)cc(=O)n(C)c1=O [6-Amino 1,3-Dimethyluracil (11), 6-Amino 1,3-Dimethyluracil], the Ki is reported as 85 nM.
In the case of O=C(O)c1c[nH]c(=O)[nH]c1=O [Isoorotic acid (10), isoorotic acid], the Ki is reported as 459 nM.
O=C(O)c1cc(=O)[nH]c(=O)[nH]1 [Orotic acid (9), Orotic acid] showed a Ki of 732 nM.

Each compound was assayed against T2, hCA II (Homo sapiens, UniProt P00918) (assay: hCA II inhibition, esterase assay with 4-nitrophenylacetate as substrate). Conditions: 4-nitrophenylacetate substrate, mean from at least three determinations, enzyme purified from human erythrocytes.
T2 construct: we have purified CA I and II (hCA I and hCA II) from human erythrocytes; from tissue; host or cells: human erythrocytes (fresh human blood)
Format: biochemical
Experimental: as §1, §2
Cn1c(N)c(N)c(=O)n(C)c1=O [5,6-Diamino 1,3-Dimethyluracil (12), 5,6-Diamino 1,3-Dimethyluracil] was tested, and the Ki was 236 nM.
Work on Cn1c(N)cc(=O)n(C)c1=O [6-Amino 1,3-Dimethyluracil (11), 6-Amino 1,3-Dimethyluracil] yielded a Ki of 172 nM.
Work on O=C(O)c1c[nH]c(=O)[nH]c1=O [Isoorotic acid (10), isoorotic acid] yielded a Ki of 1430 nM.
For O=C(O)c1cc(=O)[nH]c(=O)[nH]1 [Orotic acid (9), Orotic acid], the Ki was 1680 nM.
